Results taken from US11149064B2, “Vasoactive polypeptides for smooth muscle relaxation” (Vanderbilt University, priority 2016, dated 2021).
Entries after “also recorded” stand apart in the source; their conditions may differ. Non-standard residues stand in square brackets, D forms with d. No end group written: not given here. *: point of attachment. Palmitoyl = CCCCCCCCCCCCCCCC(=O)*; pS = N[C@@H](COP(=O)(O)O)C(=O)O

How the values were obtained:
rat aortic smooth muscle = assay: Vasorelaxation of pre-contracted, endothelium-denuded rat aortic rings in a muscle bath; type: cell-based; settings: for relaxation of rat aortic smooth muscle: phenylephrine-precontracted, endothelium-denuded rat aorta, escalating doses of polypeptide 0.1 to 1.0 mM (FIG. 2); for potency in vasorelaxation after chemical or formulatory modification of VASP1: compared with VASP1 (FIGS. 6 and 7)
Method: (§1) Freshly isolated rat aorta denuded of endothelium were suspended in a muscle bath and force generated were recorded. Phenylephrine-precontracted tissues were treated with either sodium nitroprusside (1 nM) or escalating doses of the polypeptides indicated (0.1 to 1.0 mM). Contractile response was defined by stress, which was calculated using the force generated by the tissues. [10^5 Newtons (N)/m^2]−force (g)×0.0987/area, where area is equal to the wet weight [(mg)/length (mm at maximal length)] divided by 1.055). Percent relaxation were determined as a change to the maximal phenylephrine-induced contraction. Data are reported as mean responses±standard error of the mean. n=3-17.
FIGS. 4A and B show graphs illustrating the effects of nimodipine on polypeptide induced vasorelaxation in phenylephrine precontracted rat aortic smooth muscle. Freshly isolated rat aorta denuded of endothelium were suspended in a muscle bath and force generated were recorded. Phenylephrine-precontracted tissues were treated either with escalating doses of the calcium channel blocker nimodipine (NIMO; 0.01 to 1 uM), the VASP1 polypeptide (0.1 to 1.0 mM), nimodipine (0.1 μM) followed by the VASP1 polypeptide (0.25 mM) [NIMO/VASP1], the VASP1 polypeptide (0.25 mM) followed by nimodipine (0.1 μM) [VASP1/NIMO], or simultaneous addition of nimodipine (0.1 μM) plus the VASP1 polypeptide (0.25 mM) [NIMO+VASP1]. Contractile response was defined by stress, which was calculated using the force generated by the tissues. [10^5 Newtons (N)/m^2]=force (g)×0.0987/area, where area is equal to the wet weight [(mg)/length (mm at maximal length)] divided by 1.055). (A) Percent relaxation were determined as a change to the maximal phenylephrine-induced contraction. Data are reported as mean responses±standard error of the mean. n=3-4. (B). Representative tracings of force generated in response to phenylephrine, nimodipine and the VASP1 polypeptides.
Freshly isolated rat aorta denuded of endothelium were suspended in a muscle bath and force generated were recorded. (A) Endothelin 1 (ET)-precontracted tissues were treated either with escalating doses of the calcium channel blocker nimodipine (NIMO; 0.001 to 0.1 uM), the VASP1 polypeptide (0.1 to 1.0 mM). (B) ET-precontracted tissues were treated with VASP1 polypeptide alone (0.25 mM), nimodipine alone (0.01 or 0.1 uM), nimodipine (0.01 or 0.1 uM) followed by the VASP1 polypeptide (0.25 mM), [NIMO/VASP1], the VASP1 polypeptide (0.25 mM) followed by nimodipine (0.01 or 0.1 uM), [VASP1/NIMO], or simultaneous addition of nimodipine (0.1 uM) plus the VASP1 polypeptide (0.25 mM) [NIMO+VASP1]. Contractile response was defined by stress, which was calculated using the force generated by the tissues. [10^5 Newtons (N)/m^2]=force (g)×0.0987/area, where area is equal to the wet weight [(mg)/length (mm at maximal length)] divided by 1.055). (A) Percent relaxation were determined as a change to the maximal phenylephrine-induced contraction. Data are reported as mean responses±standard error of the mean. n=2-12.
as §1, with “bath,” for “bath”, “polypeptides or polypeptide-containing nanoparticles” for “polypeptides”, “(N)/m^2]=force” for “(N)/m^2]−force”, “n=2-6.” for “n=3-17.”
Freshly isolated rat aorta denuded of endothelium were suspended in a muscle bath and force generated were recorded. […]

airway smooth muscle = assay: Relaxation of carbachol-precontracted porcine bronchial rings in a muscle bath; type: cell-based; settings: polypeptides 0.1 to 1.0 mM (FIG. 8)
Method: (§2) Bronchial rings were isolated from fresh porcine lung, suspended in a muscle bath, and force generated were recorded. Carbachol-precontracted tissues were treated with escalating doses of the polypeptides indicated (0.1 to 1.0 mM). Contractile response was defined by stress, which was calculated using the force generated by the tissues. [10^5 Newtons (N)/m^2]=force (g)×0.0987/area, where area is equal to the wet weight [(mg)/length (mm at maximal length)] divided by 1.055). Percent relaxation were determined as a change to the maximal carbachol-induced contraction. Data are reported as mean responses±standard error of the mean. n=2-4.
as §2, with “Freshly isolated porcine bronchial” for “Bronchial”, “were” for “were isolated from fresh porcine lung,”, “bath.” for “bath, and force generated were recorded.”, “with” for “with escalating doses of”, “alone (−nife) or 0.1 uM nifedipine followed by the polypeptides (+nife).” for “indicated (0.1 to 1.0 mM).”, “n=1-2.” for “n=2-4.”
Bronchial rings were suspended in the muscle bath and equilibrated for 3 hours at a basal tension of 1 gram. Rings were then contracted with the agonist carbachol (150 nM) and then relaxed with cumulative doses of the polypeptides (0.1 to 1.0 mM).
Porcine bronchial rings were suspended in the muscle bath. Tissues were treated with channel blocker alone, polypeptide alone, or in combination. The results of these study are illustrated in FIG. 9.
Rat aortae were isolated from euthanized female Sprague-Dawley rats. Porcine bronchial rings were isolated from lung obtained from euthanized female Yorkshire pigs.

[1] = phenylephrine or endothelin-1 pre-contracted rat aortic rings

## IRQTADRWRVSLDVNLTVK [SEQ ID NO: 4, peptide analogue of HSP27]
Rat aortic smooth muscle
  relaxation of rat aortic smooth muscle: directly cause smooth muscle relaxation
Airway smooth muscle
  relaxation of airway smooth muscle: directly cause smooth muscle relaxation

## KLRKV(pS)K (KLRKV[pS]K) [SEQ ID NO: 9, control peptide without transduction domain]
Rat aortic smooth muscle
  relaxation of rat aortic smooth muscle: do not directly cause relaxation; also recorded: exception

## KLRKV(pS)KLTVK (KLRKV[pS]KLTVK) [SEQ ID NO: 8, phosphopeptide analogue of VASP]
Rat aortic smooth muscle
  relaxation of rat aortic smooth muscle: directly cause smooth muscle relaxation
Airway smooth muscle
  relaxation of airway smooth muscle: directly cause smooth muscle relaxation

## YARAAARQARAA(pS)GVAVSDG (YARAAARQARAA[pS]GVAVSDG) [SEQ ID NO: 1, phosphopeptide analogue of cofilin]
Rat aortic smooth muscle
  relaxation of rat aortic smooth muscle: directly cause smooth muscle relaxation
Airway smooth muscle
  relaxation of airway smooth muscle: directly cause smooth muscle relaxation

## YARAAARQARAA(pS)GVTVSDEVI (YARAAARQARAA[pS]GVTVSDEVI) [SEQ ID NO: 2, phosphopeptide analogue of cofilin]
Rat aortic smooth muscle
  relaxation of rat aortic smooth muscle: directly cause smooth muscle relaxation
Airway smooth muscle
  relaxation of airway smooth muscle: directly cause smooth muscle relaxation

## YARAAARQARAIRQTADRWRVSLDVN [SEQ ID NO: 3, peptide analogue of HSP27]
Rat aortic smooth muscle
  relaxation of rat aortic smooth muscle: directly cause smooth muscle relaxation
Airway smooth muscle
  relaxation of airway smooth muscle: directly cause smooth muscle relaxation

## YARAAARQARAK(pS)RVLKK (YARAAARQARAK[pS]RVLKK) [SEQ ID NO: 10, control peptide]
Rat aortic smooth muscle
  relaxation of rat aortic smooth muscle: do not directly cause relaxation
Rat aortic smooth muscle; listed as scrVASP1
  relaxation of rat aortic smooth muscle: exception

## YARAAARQARAKLRKV(pS)K (YARAAARQARAKLRKV[pS]K) [SEQ ID NO: 5, phosphopeptide analogue of VASP]
Rat aortic smooth muscle; phenylephrine or endothelin-1 pre-contracted rat aortic rings, VASP1 0.25 mM with nimodipine 0.01 or 0.1 uM (FIGS. 4A-5B)
  vasorelaxation in combination with calcium channel blocker nimodipine: works in concert with calcium channel blocker, nimodipine, to enhance vasorelaxation
Rat aortic smooth muscle
  relaxation of rat aortic smooth muscle: directly cause smooth muscle relaxation
Rat aortic smooth muscle; listed as VASP1
  relaxation of rat aortic smooth muscle: sequence specific
Airway smooth muscle
  relaxation of airway smooth muscle: directly cause smooth muscle relaxation

## YARAAARQARAKLRKV(pS)KQEEA (YARAAARQARAKLRKV[pS]KQEEA) [SEQ ID NO: 6, phosphopeptide analogue of VASP]
Rat aortic smooth muscle
  relaxation of rat aortic smooth muscle: directly cause smooth muscle relaxation
Airway smooth muscle
  relaxation of airway smooth muscle: directly cause smooth muscle relaxation

## YARAAARQARAKLRKV(pS)KQEEASG (YARAAARQARAKLRKV[pS]KQEEASG) [SEQ ID NO: 7, phosphopeptide analogue of VASP]
Rat aortic smooth muscle
  relaxation of rat aortic smooth muscle: directly cause smooth muscle relaxation
Airway smooth muscle
  relaxation of airway smooth muscle: directly cause smooth muscle relaxation

## YARAAARQARA{K(palm)}GGKLRKV(pS)K (YARAAARQARAK(Palmitoyl)GGKLRKV[pS]K) [SEQ ID NO: 12]
Rat aortic smooth muscle; [1]
  potency in vasorelaxation after chemical or formulatory modification of VASP1: directly cause smooth muscle relaxation with enhanced potency

## YARAAARQARA{K(palm)}LRKV(pS)K (YARAAARQARAK(Palmitoyl)LRKV[pS]K) [SEQ ID NO: 11]
Rat aortic smooth muscle; [1]
  potency in vasorelaxation after chemical or formulatory modification of VASP1: directly cause smooth muscle relaxation with enhanced potency
